Active and inactive are the calls of the source. No cut-off for these calls is given here.
What was measured:
HepG2 = assay: Antiproliferative activity against human HepG2 cells measured after 24 hrs by MTT assay; assay type: functional, cell-based; settings: HepG2, 24 h
HeLa [1] = assay: Antiproliferative activity against human HeLa cells measured after 24 hrs by MTT assay; assay type: functional, cell-based
MCF7 = assay: Antiproliferative activity against human MCF7 cells measured after 24 hrs by MTT assay; assay type: functional, cell-based; settings: MCF7, 24 h
A549 = assay: Antiproliferative activity against human A549 cells measured after 24 hrs by MTT assay; assay type: functional, cell-based; settings: A549, 24 h
[2] = Antiproliferative activity against human 293T cells measured after 24 hrs by MTT assay; assay type: cell-based; settings: 293T (HEK-293T) cells
[3] = Inhibition of tubulin polymerization in bovine brain assessed as reduction in tubulin assembly after 20 mins by spectrophotometric method; design: species or system Bos taurus
HeLa [4] = assay: Inhibition of microtubule polymerization in human HeLa cells at 0.2 uM after 24 hrs by DAPI staining based confocal microscopic analysis; assay type: cell-based

| Compound | IC50 (HepG2) [µM] | IC50 (HeLa [1]) [µM] | IC50 (MCF7) [µM] | IC50 (A549) [µM] | CC50 at 24 h [2] [µM] | IC50 [3] [µM] | inhibition (HeLa [4]) |
| --- | --- | --- | --- | --- | --- | --- | --- |
| CCn1cc(C(=O)N2CCN(S(=O)(=O)c3ccc([N+](=O)[O-])cc3)CC2)c2ccccc21 | 69.3 | 48 | 50.9 | 63.5 | 436 | 5.52 | – |
| CCn1cc(C(=O)N2CCN(S(=O)(=O)c3ccc(Br)cc3)CC2)c2ccccc21 | 26.6 | 32.9 | 27.6 | 48.4 | 354 | 4.87 | – |
| CCCn1cc(C(=O)N2CCN(S(=O)(=O)c3ccc(Br)cc3)CC2)c2ccccc21 | 44.9 | 27.5 | 64.8 | 39.8 | 463 | 27.5 | – |
| CC(C)c1cc(C(C)C)c(S(=O)(=O)N2CCN(C(=O)c3cn(Cc4ccccc4)c4ccccc34)CC2)c(C(C)C)c1 | 17.6 | 18.3 | 14.1 | 10.7 | 295 | 3.64 | – |
| CC(=O)O[C@H]1C(=O)[C@@]2(C)[C@H]([C@H](OC(=O)c3ccccc3)[C@]3(O)C[C@H](OC(=O)[C@H](O)[C@@H](NC(=O)c4ccccc4)c4ccccc4)C(C)=C1C3(C)C)[C@]1(OC(C)=O)CO[C@@H]1C[C@@H]2O | – | – | – | – | – | – | inactive |
| O=C(c1cn(Cc2ccccc2)c2ccccc12)N1CCN(S(=O)(=O)c2ccc(Br)cc2)CC1 | 38.6 | 35.6 | 37.8 | > 100 | 326 | 6.74 | – |
| Cn1cc(C(=O)N2CCN(S(=O)(=O)c3ccc(Cl)cc3)CC2)c2ccccc21 | 16.3 | 11.7 | 29.5 | 25.3 | 257 | 3.34 | – |
| Cc1ccc(S(=O)(=O)N2CCN(C(=O)c3cn(C)c4ccccc34)CC2)cc1 | 1.83 | 3.65 | 6.53 | 7.43 | 353 | 2.15 | – |
| O=C(c1cn(Cc2ccccc2)c2ccccc12)N1CCN(S(=O)(=O)c2ccc(Cl)cc2)CC1 | > 100 | > 100 | 46.6 | 54.8 | 472 | 6.01 | – |
| CCn1cc(C(=O)N2CCN(S(=O)(=O)c3ccccc3)CC2)c2ccccc21 | 14.8 | 15.8 | 22.7 | > 100 | 366 | 3.75 | – |
| CCn1cc(C(=O)N2CCN(S(=O)(=O)c3ccc(C)cc3)CC2)c2ccccc21 | 7.45 | 12.8 | 24.6 | 24.7 | 298 | 3.75 | – |
| CCCn1cc(C(=O)N2CCN(S(=O)(=O)c3ccccc3)CC2)c2ccccc21 | 29.7 | > 100 | 23.6 | 23.6 | 485 | 48.9 | – |
| CCCn1cc(C(=O)N2CCN(S(=O)(=O)c3ccc(C)cc3)CC2)c2ccccc21 | 24.9 | 10.7 | 16.8 | 14.7 | 357 | 3.15 | – |
| CC(C)c1cc(C(C)C)c(S(=O)(=O)N2CCN(C(=O)c3cn(C)c4ccccc34)CC2)c(C(C)C)c1 | 0.45 | 0.37 | 0.63 | 0.94 | 383 | 1.97 | – |
| CCCn1cc(C(=O)N2CCN(S(=O)(=O)c3ccc(Cl)cc3)CC2)c2ccccc21 | 50.6 | > 100 | > 100 | > 100 | 537 | 45.4 | – |
| CCn1cc(C(=O)N2CCN(S(=O)(=O)c3ccc(Cl)cc3)CC2)c2ccccc21 | 36.8 | > 100 | 46.6 | > 100 | 275 | 44.9 | – |
| O=C(c1cn(Cc2ccccc2)c2ccccc12)N1CCN(S(=O)(=O)c2ccccc2)CC1 | 27.9 | 21.1 | 35.6 | 22.4 | 262 | 5.64 | – |
| Cn1cc(C(=O)N2CCN(S(=O)(=O)c3ccc([N+](=O)[O-])cc3)CC2)c2ccccc21 | 28 | 15.6 | 32.6 | 44.6 | 374 | 3.56 | – |
| Cn1cc(C(=O)N2CCN(S(=O)(=O)c3ccc(Br)cc3)CC2)c2ccccc21 | 5.79 | 9.86 | 17.3 | 6.49 | 295 | 3.96 | – |
| COc1cc2c(c(OC)c1OC)-c1ccc(OC)c(=O)cc1[C@@H](NC(C)=O)CC2 [COLCHICINE] | 0.64 | 0.45 | 0.54 | 0.47 | 152 | – | Active |
| O=C(c1cn(Cc2ccccc2)c2ccccc12)N1CCN(S(=O)(=O)c2ccc([N+](=O)[O-])cc2)CC1 | > 100 | 42.9 | 50.6 | > 100 | 347 | 6.84 | – |
| Cc1ccc(S(=O)(=O)N2CCN(C(=O)c3cn(Cc4ccccc4)c4ccccc34)CC2)cc1 | 33.2 | 10 | 18.7 | 17 | 321 | 3.02 | – |
| Cn1cc(C(=O)N2CCN(S(=O)(=O)c3ccccc3)CC2)c2ccccc21 | 4.54 | 7.76 | 9.43 | 15.5 | 314 | 2.76 | – |
| CCCn1cc(C(=O)N2CCN(S(=O)(=O)c3c(C(C)C)cc(C(C)C)cc3C(C)C)CC2)c2ccccc21 | 16.8 | 14.9 | 11.6 | 17.5 | 311 | 2.87 | – |
| CCCn1cc(C(=O)N2CCN(S(=O)(=O)c3ccc([N+](=O)[O-])cc3)CC2)c2ccccc21 | > 100 | > 100 | > 100 | > 100 | 464 | 44.8 | – |
